Where two headings read alike, the source gives them in different places. Marks after values point to notes of the source that are not given here. One block for each compound: values may come before it.
Columns and labels:
[1] = Stability in simulated gastric fluid at 37° C. (HPLC); format: physicochemical;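 as to % ER-876400 (peak retention time: 1.46 min): percent of total sample signal attributed to the analyte peak at each sampling time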
Excerpt: […]. See Kararli, T. T. Comparison of the GI anatomy, physiology, and biochemistry of humans and commonly used laboratory animals. BioPharm & DrugDispos. 16:351-380, 1995, which is hereby wholly incorporated by reference. The gastric pH in fasted monkeys has been reported to have a similar range of 1-3. See Kondo, H. et al. Characteristics of the gastric pH profiles of unfed and fed cynomolgus monkeys as pharmaceutical product development subjects. BioPharm & DrugDispos. 24:45-51, 2003, which is hereby wholly incorporated by reference.
Materials: Simulated gastric fluid (SGF) was prepared by mixing the following into 100 mL of HPLC grade (or purified) water: 200 mg of sodium chloride and 1.87 mL of a 37.52% HCl stock solution.
The HPLC analyses were conducted using a Waters UPLC solvent delivery system with Corona CAD detection. The HPLC Column (Waters Atlantis HHS T3 2.1×100 mm, 1.8 um) was maintained at 40° C. and preequilibrated with a solution containing 98% water and 2% acetonitrile. The temperature controlled auto-sampler was maintained at 37° C. The flow rate for the Water/MeCN mobile phase was 0.65 mL/min, with a gradient following sample injection (5 μL) as follows: […]
The Water/MeCN mobile phase was applied to the column with the above described flow rate and gradient and the HPLC chromatograms were collected. After 3.5 minutes, the column was reequilibrated with 98% water/2% MeCN for 1.5 minutes.

[2] = Pharmacokinetics in mice after IV and PO administrations; format: in vivo, male BALB-c mice
Method: […]. All doses were prepared in phosphate buffered saline (PBS) and were administered at a volume of 5 mL/kg. Five mice per group were used in these studies. Blood samples were taken serially from the tail vein of each mouse at predetermined timepoints. Blood samples from all mice in each group were pooled together prior to processing for plasma. The pooled blood samples were spun down within 30-60 minutes after withdrawal and the plasma was harvested and frozen for assay. After preparation and extraction the samples were assayed by LC/MS/MS.

cytidine deaminase (CDA) = cytidine deaminase (CDA) (Homo sapiens (Human), UniProt P32320); assay: Effect of ER-876437 on the half-life of decitabine in the presence of CDA in Tris-HCl buffer at 37° C.; format: biochemical; conditions: for half-life at 0.2 mM: pH 7.4, Estimated T1/2 of decitabine
Sequence of cytidine deaminase (CDA) (P32320 whole entry): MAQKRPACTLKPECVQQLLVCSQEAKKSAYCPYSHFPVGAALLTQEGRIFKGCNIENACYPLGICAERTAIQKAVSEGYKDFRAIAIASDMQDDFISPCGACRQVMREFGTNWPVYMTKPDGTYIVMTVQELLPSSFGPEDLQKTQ
Method: The solvent delivery system employed an HPLC quaternary pump, low pressure mixing. An autosampler having a variable loop, 0.1 to 100 μL range and temperature controlled thermostat was used. […] Degassed HPLC grade water and degassed HPLC grade acetonitrile were used as solvents for the mobile phases. […] [table]

murine lymphoma L1210 [3] = conditions: for Mean Survival (days) ± SD: twice a day (8 hours apart), 4 days
Method: Or, a stock of L1210 ascites in BSA solution was diluted to 1×10^4 cells/0.1 ml for use in the study mice.
(§1) The mice were prepared with intravenous (IV) injection of L1210 ascites (prepared as described above) one day prior to commencing the dosing. […] The total IV injection for all mice took about 50 minutes.
All solutions were stored on ice while dosing. Mice were dosed (intraperitoneally (IP) or per os (orally, PO)) twice a day (8 hours apart) for 4 consecutive days.
(§2) Dead mice were autopsied and observed for the presence of tumors in organs.

murine lymphoma L1210 [4] = conditions: for Mean Liver wts (g) ± SD / Mean Spleen wts (g) ± SD: on autopsy; for % ILS (Increased Life Span): vs vehicle group
Method: Preparation of L1210 Cells: L1210 ascitic cells were prepared by passaging them in mice at least three times as follows. Each CD2F1 female mouse was intraperitoneally (IP) injected with about 10^5 L1210 ascitic cells. After one week, the mouse was sacrificed (asphyxiation via CO2). The mouse was placed on its back, its belly surface was cleaned with alcohol wipes, and a small incision was made into the peritoneal cavity. […] Diluted ascites (diluted 1:10 again) were counted on a hematocytometer and the number of cells per mL was calculated. About 10^5 L1210 cells were used for a subsequent passage for another mouse passage. Or, a stock of L1210 ascites in BSA solution was diluted to 1×10^4 cells/0.1 ml for use in the study mice.
as §1
Decitabine was prepared fresh twice a day, just prior to dosing. All solutions were stored on ice while dosing. Mice were dosed (intraperitoneally (IP) or per os (orally, PO)) twice a day (8 hours apart) for 4 consecutive days.
as §2
Preparation of study mice with IV injection of L1210 ascites took about 60 minutes. […] All solutions were stored on ice while dosing. Mice were dosed (IP or PO) twice a day (7 or 8 hours apart) for 4 consecutive days.

CDA = CDA (Homo sapiens (Human), UniProt P32320); conditions: deamination by CDA; Chabot et al. 1983, Bouffard et al. 1993; cited from earlier work
Sequence of CDA (P32320 whole entry): as above

[5] = male, BALB-c, mouse, plasma, 10 mg/kg IV
[6] = male, BALB-c, mouse, plasma, 10 mg/kg IV, read-out: Plasma concentrations
[7] = male, BALB-c, mouse, plasma, 10 mg/kg PO, read-out: Plasma concentrations
[8] = Veh/decitabine 0.1 mg/kg PO, on autopsy
[9] = Veh/decitabine 0.1 mg/kg PO (7 hours apart)
[10] = Veh/decitabine 0.1 mg/kg PO (8 hr.)

- % ER-876400 (peak retention time: 1.46 min) ([1]; SGF at 37° C., analysis time 0:00:30): 19.59%
- % ER-876400 (peak retention time: 1.46 min) ([1]; SGF at 37° C., analysis time 0:06:08): 17.04%
- % ER-876400 (peak retention time: 1.46 min) ([1]; SGF at 37° C., analysis time 0:11:45): 16.72%
- % ER-876400 (peak retention time: 1.46 min) ([1]; SGF at 37° C., analysis time 0:17:23): 15.17%
- % ER-876400 (peak retention time: 1.46 min) ([1]; SGF at 37° C., analysis time 0:23:01): 14.20%
- % ER-876400 (peak retention time: 1.46 min) ([1]; SGF at 37° C., analysis time 0:28:38): 13.23%
- % ER-876400 (peak retention time: 1.46 min) ([1]; SGF at 37° C., analysis time 0:34:16): 12.51%
- % ER-876400 (peak retention time: 1.46 min) ([1]; SGF at 37° C., analysis time 0:39:54): 14.05%
- % ER-876400 (peak retention time: 1.46 min) ([1]; SGF at 37° C., analysis time 0:45:33): 11.42%
- % ER-876400 (peak retention time: 1.46 min) ([1]; SGF at 37° C., analysis time 0:51:10): 10.71%
- % ER-876400 (peak retention time: 1.46 min) ([1]; SGF at 37° C., analysis time 0:56:48): 8.87%
- % ER-876400 (peak retention time: 1.46 min) ([1]; SGF at 37° C., analysis time 1:02:27): 9.14%
- % ER-876400 (peak retention time: 1.46 min) ([1]; SGF at 37° C., analysis time 1:08:07): 8.81%
- % ER-876400 (peak retention time: 1.46 min) ([1]; SGF at 37° C., analysis time 1:13:46): 7.66%
- % ER-876400 (peak retention time: 1.46 min) ([1]; SGF at 37° C., analysis time 1:19:23): 4.05%
- % ER-876400 (peak retention time: 1.46 min) ([1]; SGF at 37° C., analysis time 1:25:01): 6.44%
- % ER-876400 (peak retention time: 1.46 min) ([1]; SGF at 37° C., analysis time 1:30:38): 5.92%
- % ER-876400 (peak retention time: 1.46 min) ([1]; SGF at 37° C., analysis time 1:36:16): 5.72%
- % ER-876400 (peak retention time: 1.46 min) ([1]; SGF at 37° C., analysis time 1:41:53): 5.69%
- % ER-876400 (peak retention time: 1.46 min) ([1]; SGF at 37° C., analysis time 1:47:32): 4.98%
- % ER-876400 (peak retention time: 1.46 min) ([1]; SGF at 37° C., analysis time 1:53:10): 4.51%
- % ER-876400 (peak retention time: 1.46 min) ([1]; SGF at 37° C., analysis time 1:58:49): 3.85%
- % ER-876400 (peak retention time: 1.46 min) ([1]; SGF at 37° C., analysis time 2:04:28): 3.59%
- % ER-876400 (peak retention time: 1.46 min) ([1]; SGF at 37° C., analysis time 2:21:24): 2.82%
- % ER-876400 (peak retention time: 1.46 min) ([1]; SGF at 37° C., analysis time 2:49:37): 1.52%
- % ER-876400 (peak retention time: 1.46 min) ([1]; SGF at 37° C., analysis time 3:17:48): 0.81%
- % ER-876400 (peak retention time: 1.46 min) ([1]; SGF at 37° C., analysis time 3:23:28): 0.62%
- % ER-876400 (peak retention time: 1.46 min) ([1]; SGF at 37° C., analysis time 3:46:00): 0.39%
- % ER-876400 (peak retention time: 1.46 min) ([1]; SGF at 37° C., analysis time 3:51:38): 0.25%
- % ER-876400 (peak retention time: 1.46 min) ([1]; analysis time 0:00:00, initial sample in water): 84.04%
- time to degrade by 50% ([1]; simulated gastric fluid (pH 1.45) at 37° C.): less than 30 seconds
- AUC0-∞ ([2]; 10 mg/kg IV): 20.999 µg·h/mL
- AUC0-∞/D ([2]; 10 mg/kg IV): 2100 ng · hr/mL/D
- AUCExtrap ([2]; 10 mg/kg IV): 10.3%
- CL ([2]; 10 mg/kg IV): 0.48 L/h/kg
- dose-normalized exposures (AUC0-∞) ([2]; 10 mg/kg IV): 2100 ng·h/mL per mg/kg
- t1/2 ([2]; 10 mg/kg IV): 16.1 h
- Plasma concentrations ([2]; 10 mg/kg IV, 2 hr): 1753 ^a ng/mL
- AUC(0-t) ([2]; 10 mg/kg PO): 13.16 µg·h/mL
- AUC(0-inf) [2, 5]: 21 µg·h/mL
- clearance [2, 5]: 0.48 L/h/kg
- half-life [2, 5]: 16.1 h
- concentration at 0.167 hr [2, 6]: 19.9 µg/mL
- concentration at 0.5 hr [2, 6]: 10.2 µg/mL
- concentration at 1 hr [2, 6]: 4.21 µg/mL
- concentration at 4 hr [2, 6]: 0.495 µg/mL
- concentration at 6 hr [2, 6]: 0.118 µg/mL
- concentration at 8 hr [2, 6]: 0.059 µg/mL
- concentration at 24 hr [2, 6]: 0.093 µg/mL
- AUC(0-t) ([2]; male, BALB-c, mouse, plasma, 10 mg/kg IV, read-out: AUC0-t): 18.8 µg·h/mL
- Vd ([2]; male, BALB-c, mouse, plasma, 10 mg/kg IV, read-out: Vss): 3.2 L/kg
- Cmax ([2]; male, BALB-c, mouse, plasma, 10 mg/kg PO): 7.86 µg/mL
- bioavailability ([2]; male, BALB-c, mouse, plasma, 10 mg/kg PO vs IV, calculated based on AUC0-t, read-out: F (bioavailability)): 69.9%
- concentration at 0.167 hr [2, 7]: 7.1 µg/mL
- concentration at 0.5 hr [2, 7]: 7.86 µg/mL
- concentration at 1 hr [2, 7]: 4.67 µg/mL
- concentration at 2 hr ([2]; male, BALB-c, mouse, plasma, 10 mg/kg PO, 2 hr, read-out: Plasma concentrations): 1.75 µg/mL
- concentration at 4 hr [2, 7]: 0.32 µg/mL
- concentration at 6 hr [2, 7]: 0.087 µg/mL
- concentration at 8 hr [2, 7]: 0.044 µg/mL
- concentration at 24 hr [2, 7]: 0.264 µg/mL
- AUC(0-t) ([2]; male, BALB-c, mouse, plasma, 10 mg/kg PO, read-out: AUC0-t): 13.2 µg·h/mL
SMILES: O=C1NCC=CCN1[C@@H]1O[C@H](CO)[C@@H](O)[C@H]1O [ER-876400, (Z)-3,4-dihydro-1-((2R,3R,4S,5R)-tetrahydro-3,4-dihydroxy-5-(hydroxymethyl)furan-2-yl)-1H-1,3-diazepin-2(7H)-one, reference compound]

SMILES: Nc1ncn([C@H]2C[C@H](O)[C@@H](CO)O2)c(=O)n1 [decitabine, 5-aza-2′-deoxycytidine]
- Estimated T1/2 of decitabine (cytidine deaminase (CDA); Decitabine in Tris-HCl buffer at 37° C. (absence of CDA)): 9 h
- Estimated T1/2 of decitabine (cytidine deaminase (CDA); Decitabine with CDA and ER-876437 in Tris-HCl buffer at 37° C.): 9 h
- half-life at 0.2 mM (cytidine deaminase (CDA); Tris-HCl buffer, Decitabine in Tris-HCl buffer at 37° C. (absence of CDA)): 9 h
- half-life at 0.2 mM (cytidine deaminase (CDA); cytidine deaminase (CDA) in Tris-HCl buffer, Decitabine with CDA and ER-876437 in Tris-HCl buffer at 37° C.): 9 h
- half-life at 0.2 mM (cytidine deaminase (CDA); cytidine deaminase (CDA) in Tris-HCl buffer, Decitabine with CDA in Tris-HCl buffer at 37° C.): ~0.383 h
- Mean Survival (days) ± SD (murine lymphoma L1210 [3]; Veh/decitabine 0.1 mg/kg IP): 13.4 ± 0.89 days
- Mean Liver wts (g) ± SD (murine lymphoma L1210 [3]; [8]): 2.17 ± 0.1 g
- Mean Spleen wts (g) ± SD (murine lymphoma L1210 [3]; [8]): 0.34 ± 0.04 g
- Mean Survival (days) ± SD (murine lymphoma L1210 [3]; Veh/decitabine 0.1 mg/kg PO): 11.2 ± 0.45 days
- % ILS (Increased Life Span) (murine lymphoma L1210 [3]; Veh/decitabine 0.1 mg/kg PO, vs vehicle group): 51.35%
- difference in survival when dosed 7 or 8 hours apart (murine lymphoma L1210 [4]; 0.1 mg/kg decitabine PO twice a day, 4 days): no difference in survival
- Mean Survival (days) ± SD (murine lymphoma L1210 [4]; Veh/decitabine 0.1 mg/kg IP, twice a day (7 hours apart), 4 days): 13.6 ± 0.55 days
- Mean Liver wts (g) ± SD (murine lymphoma L1210 [4]; [9]): 2.02 ± 0.31 g
- Mean Spleen wts (g) ± SD (murine lymphoma L1210 [4]; [9]): 0.36 ± 0.11 g
- % ILS (Increased Life Span) (murine lymphoma L1210 [4]; [9]): 47.50%
- Mean Liver wts (g) ± SD (murine lymphoma L1210 [4]; [10]): 1.81 ± 0.41 g
- Mean Spleen wts (g) ± SD (murine lymphoma L1210 [4]; [10]): 0.33 ± 0.06 g
- Mean Survival (days) ± SD (murine lymphoma L1210 [4]; Veh/decitabine 0.1 mg/kg PO (8 hr.), twice a day (8 hours apart), 4 days): 11.6 ± 0.55 days
- % ILS (Increased Life Span) (murine lymphoma L1210 [4]; [10]): 45.00%
- Mean Survival (days) ± SD (murine lymphoma L1210 [4]; Veh/decitabine 0.1 mg/kg PO, twice a day (7 hours apart), 4 days): 11.8 ± 0.84 days

SMILES: Nc1ccn([C@H]2C[C@H](O)[C@@H](CO)O2)c(=O)n1 [deoxycytidine]
- Km (CDA): 19 ± 4 µM

Source: US9040501B2, “Compositions and methods for treating cancer” (Eisai Inc., priority 2009, dated 2015)
